{"source": "paper PMC9935382", "about": "“Sorting nexin-dependent therapeutic targeting of oncogenic epidermal growth factor receptor” (Cancer Gene Therapy, 2022)", "key": {"[1]": {"system": "nuclear EGFR in MDA-MB-468 cells", "assay": "Nuclear EGFR by subcellular fractionation", "assay_type": "cell-based", "settings": "serum starved, 20 ng/mL EGF and peptide, 2 h; subcellular fractionation and immunoblot", "method": "Cells were trypsinized and washed with PBS, followed by centrifugation at 100 g (4 °C) for 5 minutes. The cell pellet was resuspended in ice-cold cytosolic fraction buffer (150 mM NaCl, 50 mM HEPES pH 7.4, 25 ug/mL digitonin, with Complete protease inhibitors (Roche) and phosphatase inhibitors (2.0 mM sodium orthovanadate, 10.0 μM ammonium molybdate and 10.0 mM sodium fluoride) and tumbled at 4 °C for 10 minutes, followed by centrifuged at 2000 g, 4 °C for 10 minutes and the cytosolic fraction transferred retained for analysis as the cytosolic fraction. The pellet was then washed twice in ice-cold PBS, resuspended in membrane fraction buffer (150 mM NaCl, 50 mM HEPES pH 7.4, 1% NP-40, with protease and phosphatase inhibitors) and incubated on ice for 30 minutes. […]\nLysates were prepared as described, protein concentrations determined by BCA assay (Pierce) and resolved via standard SDS-PAGE [18]. Gels were transferred to either PVDF (Immobilon P or Immobilon FL) membrane and probed with the indicated antibodies and analyzed by either HRP-linked secondaries (Pierce) or IRDye secondaries (Li-Cor), followed by development in Dura Signal (Pierce) or IR (Licor). […]\nCells were then fractionated and verified by HSP90 cytosolic protein, Bap31 membrane protein, or HDAC nuclear protein. […] After the second week, the number of secondary mammospheres were counted."}, "[2]": {"system": "EGFRkin / SNX1 BAR domain", "assay": "Competitive binding assay, SNX BAR / EGFRkin", "set-up": "species or system human", "settings": "2.5 μM peptide; data not shown"}, "MDA-MB-231 cells": {"system": "MDA-MB-231 cells", "assay": "MTT cell viability, MDA-MB-231", "assay_type": "cell-based", "settings": "3 days", "method": "(§1) 2 × 10^3 cells were plated per well in a 96 well plate and left to adhere overnight. The following day, drug treatments were started and continued for 3 days. To measure the viability of the remaining cell population, 10% 3-(4,5-dimethylthiazol-2-yl)-2,5-diphenyltetrazolium (MTT) in media was added and incubated for 2 hours and conversion of MTT to formazan at 540 nm using a biotech Synergy LX plate reader.\n(§2) A–G Cells were plated in a 96-well plate at 2000 cells per well. […] Cell viability was then measured with an MTT assay, viability of treated cells were compared with the vehicle control. H MDA-MB-468 cells were plated and incubated+/− IPTG for 2 days prior to drug treatment to induce expression of an EGFR-targeted shRNA."}, "[3]": {"assay": "Potential toxicity in C57Bl/6 J female mice", "assay_type": "in vivo, mouse", "settings": "5.0 or 10.0 μg/g body weight IV 3X/week, 2 weeks, cSNX1.3 vs cPTD4; data not shown"}, "[4]": {"assay": "Body weight and toxicity in WAP-TGFα mice", "assay_type": "in vivo", "settings": "10 μg/g IV 3X/week, up to 4 weeks", "from_the_text": "The transgenic mouse line WAP-TGFα (The Jackson Laboratory; Tg(WapTgfa)215Bri) were back crossed to C57BL/6 J background (N8). WAP-TGFα heterozygous males were bred with C57BL/6 J females to generate study animals and offspring were genotyped using primers against the WAP-TGFα transgene. WAP-TGFα heterozygous females were housed continuously with C57Bl/6 J males to induce pregnancy, resulting in transgene expression. […] To ensure randomized treatment arms we added mice to alternating treatment arms as they developed tumors, starting with the control cPTD4 arm. When a second mouse from the same litter developed a tumor, that animal was added to the opposite arm from its litter mate. The researchers were not blinded to the treatment arms. […] Once entered, mice were weighed, tumors measured, and injections given intravenously at 10 μg/g body weight 3x/week for 4 weeks. […] Upon sacrifice, all tumors were collected and fixed in 10% formalin; a portion of each tumor was homogenized in tissue lysis buffer to form tissue protein lysates. Tissues were paraffin-embedded and sectioned by the Tissue Acquisition and Cell Molecular Analysis Shared Resource at the University of Arizona Cancer Center. […]\nWhen tumors reached >100 mm^3, IV injections began at 3X/week, 10 μg/g body weight and tumors were measured 3X/week with calipers. […]\nSupplementary Figure 2. […] B. Tumors were measured with calipers 3X/week. […]"}, "T47D cells": {"system": "T47D cells", "assay": "MTT cell viability, T47D", "assay_type": "cell-based", "settings": "3 days, ER+ breast cancer line", "method": "as §1, §2"}, "BT20 cells": {"system": "BT20 cells", "assay_type": "cell-based", "settings": "3 days, MTT", "method": "as §1, §2\nSupplementary Figure 1. A. BT20 triple negative breast cancer cells were treated with SNX1.1, 1.2, or 1.3 for 3 days and their viability was measured via MTT analysis. B. CHO cells were treated with PTD4 or SNX1.3 for 3 days and their viability was measured via MTT analysis."}, "MCF10A cells": {"system": "MCF10A cells", "assay": "MTT cell viability, MCF10A", "assay_type": "cell-based", "settings": "immortalized breast epithelial line, 3 days", "method": "as §1, §2"}, "PARP": {"system": "PARP", "assay": "PARP cleavage in tumor lysates (immunoblot)", "assay_type": "in vivo, mouse", "settings": "tumor lysates at sacrifice; 10 μg/g IV 3X/week; vs cPTD4", "method": "Lysates were prepared as described, protein concentrations determined by BCA assay (Pierce) and resolved via standard SDS-PAGE [18]. Gels were transferred to either PVDF (Immobilon P or Immobilon FL) membrane and probed with the indicated antibodies and analyzed by either HRP-linked secondaries (Pierce) or IRDye secondaries (Li-Cor), followed by development in Dura Signal (Pierce) or IR (Licor).\nThe transgenic mouse line WAP-TGFα (The Jackson Laboratory; Tg(WapTgfa)215Bri) were back crossed to C57BL/6 J background (N8). WAP-TGFα heterozygous males were bred with C57BL/6 J females to generate study animals and offspring were genotyped using primers against the WAP-TGFα transgene. WAP-TGFα heterozygous females were housed continuously with C57Bl/6 J males to induce pregnancy, resulting in transgene expression. […] To ensure randomized treatment arms we added mice to alternating treatment arms as they developed tumors, starting with the control cPTD4 arm. When a second mouse from the same litter developed a tumor, that animal was added to the opposite arm from its litter mate. The researchers were not blinded to the treatment arms. […] Once entered, mice were weighed, tumors measured, and injections given intravenously at 10 μg/g body weight 3x/week for 4 weeks. […]"}}, "note": "Entries after “also recorded” stand apart in the source; their conditions may differ."}
{"smiles": "CC[C@H](C)[C@H](NC(=O)[C@@H](NC(=O)[C@H](Cc1c[nH]cn1)NC(=O)[C@H](CC(N)=O)NC(=O)[C@H](CCCCN)NC(=O)[C@H](C)NC(=O)[C@H](CCCNC(=N)N)NC(=O)[C@H](C)NC(=O)[C@H](CCC(N)=O)NC(=O)[C@H](CCCNC(=N)N)NC(=O)[C@H](C)NC(=O)[C@H](C)NC(=O)[C@H](C)NC(=O)[C@H](CCCNC(=N)N)NC(=O)[C@H](C)NC(=O)[C@H](Cc1ccc(O)cc1)NC(C)=O)C(C)C)C(=O)N[C@@H](CCCCN)C(=O)N[C@@H](Cc1ccc(O)cc1)C(=O)N[C@@H](CC(C)C)C(=O)N[C@@H](CCC(=O)O)C(=O)N[C@H](C(=O)N[C@@H](CC(C)C)C(=O)N[C@@H](CC(C)C)C(=O)N[C@@H](Cc1ccc(O)cc1)C(=O)N[C@@H](CO)C(=O)N[C@@H](CCC(N)=O)C(=O)N[C@@H](CCC(N)=O)C(=O)N[C@@H](CCC(N)=O)C(=O)N[C@@H](CC(C)C)C(=O)N[C@@H](C)C(=O)N[C@@H](CCCCN)C(=O)N[C@@H](Cc1ccc(O)cc1)C(=O)N[C@@H](Cc1c[nH]c2ccccc12)C(=O)N[C@@H](CCC(=O)O)C(=O)N[C@@H](C)C(=O)N[C@@H](Cc1ccccc1)C(=O)N[C@@H](CC(C)C)C(N)=O)[C@@H](C)O", "note": "[cSNX1.3]", "values": [{"measurement": "nuclear-localized EGFR", "setting": "[1]", "value": "inhibits the nuclear localization of EGFR; also recorded: loss of nuclear-localized EGFR"}, {"measurement": "inhibition of SNX BAR binding to EGFRkin", "setting": "[2]", "value": "blocks SNX BAR binding to EGFRkin"}, {"measurement": "sensitivity (cell viability)", "setting": "MDA-MB-231 cells", "value": "sensitive"}, {"measurement": "weight, behavior, or grooming", "setting": "[3]", "value": "No difference in weight, behavior, or grooming was observed"}, {"measurement": "observable toxicity", "setting": "[4]", "value": "without observable toxicity; also recorded: no observable toxicity; also recorded: lack of observable toxicity in normal tissues"}, {"measurement": "sensitivity (cell viability)", "setting": "T47D cells", "value": "sensitive"}, {"measurement": "inhibition of cell survival compared with Sapitinib", "setting": "BT20 cells", "value": "more effective than Sapitinib"}, {"measurement": "impact on cell viability / growth", "setting": "MCF10A cells", "value": "almost no impact"}, {"measurement": "PARP cleavage in remaining tumors", "setting": "PARP", "value": "increased PARP cleavage; also recorded: increase in cleaved PARP"}]}
